Where only a bound is given, the exact number is not on record here.

In one series the test system is DLD-1. As to the kind of experiment: Cytotoxicity against human DLD-1 cells expressing K-Ras G13D mutant assessed as reduction in cell viability incubated for 72 hrs by CCK-8 assay. It counts as functional, cell-based. Particulars: DLD-1, 72 h. For orientation: Tetrazolium assays rely on reduction of a dye to a coloured formazan, in cell work by metabolically active cells.

The subject of the next series is HT-29. As to the kind of experiment: Cytotoxicity against wild type human HT-29 cells assessed as reduction in cell viability incubated for 72 hrs by CCK-8 assay. It counts as functional, cell-based. Particulars: HT-29, 72 h.
For the next series, the system named is A549. As to the kind of experiment: Cytotoxicity against human A549 cells expressing K-Ras […] mutant assessed as reduction in cell viability incubated for 72 hrs by CCK-8 assay. The class given is functional, cell-based. The note with it: A549, 72 h.
Series [1] is described as follows: Cytotoxicity against human NCM460 cells assessed as reduction in cell viability incubated for 72 hrs by CCK-8 assay. The class given is toxicity, cell-based.
Another series deals with NCI-H460. As to the kind of experiment: Cytotoxicity against human NCI-H460 cells expressing K-Ras Q61H mutant assessed as reduction in cell viability incubated for 72 hrs by CCK-8 assay. It counts as functional, cell-based. Particulars: NCI-H460, 72 h.
Another series deals with NCI-H1299. As to the kind of experiment: Cytotoxicity against human NCI-H1299 cells expressing N-ras mutant assessed as reduction in cell viability incubated for 72 hrs by CCK-8 assay. Particulars: NCI-H1299, 72 h. The class given is functional, cell-based.
A further series concerns SW-620. As to the kind of experiment: Cytotoxicity against human SW620 cells expressing K-Ras G12V mutant assessed as reduction in cell viability incubated for 72 hrs by CCK-8 assay. It counts as functional, cell-based. The note with it: SW-620, 72 h.

For orientation: IC50 means the concentration that gives 50% inhibition. In the case of `CC[C@H](C)[C@@H]1OC(=O)C(C)(C)C(=O)[C@@H](Cc2ccccc2)OC(=O)[C@H](C(C)C)OC(=O)[C@@H](NC(=O)c2cccc(F)c2)[C@@H](C)OC1=O`, the IC50 is 2700 nM in the series on DLD-1; over 20 µM in the series on HT-29; 11.2 µM in the series with A549; 8.8 µM in the series with NCI-H460; over 20 µM in the series with NCI-H1299; 330 nM with SW-620. Besides, in series [1], the IC50 at 72 h is over 20 µM.

As to `CC[C@H](C)[C@@H]1OC(=O)C(C)(C)C(=O)[C@H](Cc2ccccc2)OC(=O)[C@H](C(C)C)OC(=O)[C@@H](NC(=O)c2cccc(F)c2)[C@@H](C)OC1=O`, the IC50 with DLD-1 is 3500 nM; in the series on HT-29, over 20 µM; in the series with A549, over 20 µM; with NCI-H460, over 20 µM; in the series with NCI-H1299, over 20 µM; in the series with SW-620, 1100 nM. For the same compound, the IC50 at 72 h in series [1] was over 20 µM.

As to `CC[C@H](C)[C@@H]1OC(=O)C(C)(C)C(=O)[C@H](Cc2ccccc2)OC(=O)[C@H](C(C)C)OC(=O)[C@@H](NC(=O)c2ccccc2F)[C@@H](C)OC1=O`, the IC50 with DLD-1 was 2600 nM; with HT-29 it was 9.4 µM; in the series with A549, over 20 µM; in the series on NCI-H460, over 20 µM; in the series on NCI-H1299 it was over 20 µM; with SW-620, 560 nM. Further, the IC50 at 72 h in series [1] was over 20 µM.

For `CC[C@H](C)[C@@H]1OC(=O)C(C)(C)C(=O)[C@H](Cc2ccccc2)OC(=O)[C@H](C(C)C)OC(=O)[C@@H](NC(=O)c2ccccc2)[C@@H](C)OC1=O`, the IC50 with DLD-1 was 1900 nM; in the series on HT-29, over 20 µM; with A549, over 20 µM; in the series with NCI-H460, over 20 µM; with NCI-H1299 it was over 20 µM; with SW-620, 360 nM. Besides, the IC50 at 72 h in series [1] was over 20 µM.

For the compound `CC[C@H](C)[C@@H]1OC(=O)C(C)(C)[C@@H](O)[C@@H](Cc2ccccc2)OC(=O)[C@H](C(C)C)OC(=O)[C@@H](NC(=O)c2cccc(NC=O)c2O)[C@@H](C)OC1=O`, the IC50 is 59 nM in the series on DLD-1; 0.0006 µM in the series with HT-29; 4e-05 µM with A549; 0.316 µM with NCI-H460; 0.0105 µM with NCI-H1299; 3.8 nM in the series with SW-620. In series [1], the IC50 at 72 h amounted to 0.00024 µM.

On to `CC[C@H](C)[C@@H]1OC(=O)C(C)(C)C(=O)[C@@H](Cc2ccccc2)OC(=O)[C@H](C(C)C)OC(=O)[C@@H](NC(=O)c2ccccc2F)[C@@H](C)OC1=O`, for which the IC50 in the series with DLD-1 was 600 nM; in the series on HT-29, over 20 µM; with A549 it was 4.3 µM; in the series with NCI-H460, 1.3 µM; with NCI-H1299, 3.3 µM; with SW-620, 140 nM. The IC50 at 72 h in series [1] is over 20 µM.

`CC[C@H](C)[C@@H]1OC(=O)C(C)(C)C(=O)[C@@H](Cc2ccccc2)OC(=O)[C@H](C(C)C)OC(=O)[C@@H](NC(=O)c2ccccc2)[C@@H](C)OC1=O`: the IC50 in the series on DLD-1 is 70 nM; with HT-29, over 20 µM; in the series with A549, 0.33 µM; in the series with NCI-H460, 1.6 µM; with NCI-H1299 it was 4.5 µM; in the series on SW-620, 40 nM. For the same compound, in series [1], the IC50 at 72 h was over 20 µM.

Turning to `CC[C@H](C)[C@@H]1OC(=O)C(C)(C)C(=O)[C@@H](Cc2ccccc2)OC(=O)[C@H](C(C)C)OC(=O)[C@@H](NC(=O)c2ccccc2O)[C@@H](C)OC1=O`, the IC50 in the series with DLD-1 is 2800 nM; with HT-29, over 20 µM; in the series with A549, 9.7 µM; with NCI-H460 it was 4.4 µM; in the series on NCI-H1299, over 20 µM; in the series with SW-620, 330 nM. The IC50 at 72 h in series [1] turned out to be 6.6 µM.

With `CC[C@H](C)[C@@H]1OC(=O)C(C)(C)C(=O)[C@@H](Cc2ccccc2)OC(=O)[C@H](C(C)C)OC(=O)[C@@H](NC(=O)c2cccc(O)c2)[C@@H](C)OC1=O`, the IC50 with DLD-1 is over 20000 nM; in the series with HT-29, over 20 µM; in the series with A549 it was 10.1 µM; in the series on NCI-H460, over 20 µM; in the series on NCI-H1299 it was over 20 µM; in the series with SW-620 it was 1900 nM. The IC50 at 72 h in series [1] is over 20 µM.

On to `CC[C@H](C)[C@@H]1OC(=O)C(C)(C)C(=O)[C@H](Cc2ccccc2)OC(=O)[C@H](C(C)C)OC(=O)[C@@H](NC(=O)c2cccc(O)c2)[C@@H](C)OC1=O`, for which the IC50 with DLD-1 is over 20000 nM; with HT-29, over 20 µM; in the series on A549, over 20 µM; with NCI-H460, 17.9 µM; with NCI-H1299 it was 3.1 µM; with SW-620 it was 1300 nM. For the same compound, the IC50 at 72 h in series [1] was over 20 µM.

The values are drawn from ChEMBL document CHEMBL5634178, “Precursor-Directed Biosynthesis of Neoantimycin Derivatives with Selective Cytotoxicity” (J Nat Prod, 2024).
